Reference: patent US4555513A, “1,2 Dihydro- and 1,2,3,4-tetrahydro quinolylacetic acids and analgesic use thereof” (priority 1982, dated 1985)
Like-named read-outs stand apart in the source and are kept apart here.

What was measured:
[1] = Acute toxicity (oral, mortality after 72 hours); details: mouse, in vivo
Procedure: Groups of 10 male dd mice weighing some 18 g were orally administered the examined drugs and the number of death p 72 hours later was recorded.

dd mice [2] = experiment: Analgesic effects by a modified Haffner method; format: in vivo, mouse (dd mice); details: with morphine hydrochloride 2 mg/kg s.c.
Procedure: Group of 10 dd mice were orally administered the examined drugs and 30 minutes later 2 mg/kg of morphine hydrochloride, the threshold dose, was injected subcutaneously. At 15, 30, 45 and 60 minutes thereafter, the root of mouse's tail was squeezed with a Kocher's forceps.

dd mice [3] = experiment: Analgesic effects by acetic acid writhing test; format: in vivo, mouse (male dd mice)
Procedure: 30 minutes after the examined drug was orally given, 0.1 ml/10 g of 0.6% acetic acid solution was intraperitoneally administered to group of 10 male dd mice weighing some 18 g. The number of stretching was calculted during an observation period of 15 to 20 minutes after acetic acid treatment. The average inhibition rate of stretching among 8 animals was regarded as the inhibition rate of the drug, excluding 2 animals showing maximum and minimum numbers of stretching.

[4] = 800 mg/kg oral, 72 hours, read-out: Mortality
[5] = 400 mg/kg oral, 72 hours, read-out: Mortality

Compound | mortality at 72 h [1, 4] [%] | Analgesic effects (dd mice [2]; 100 mg/kg oral) [%] | Analgesic effects (dd mice [2]; 200 mg/kg oral) [%] | Analgesic effects (inhibition rate of stretching) (dd mice [3]; 50 mg/kg oral) [%] | Analgesic effects (inhibition rate of stretching) (dd mice [3]; 100 mg/kg oral) [%] | Analgesic effects (inhibition rate of stretching) (dd mice [3]; 150 mg/kg oral) [%] | mortality at 72 h [1, 5] [%] | mortality at 72 h ([1]; po, 600 mg/kg) [%]
Cc1c(N(C)C)c(=O)n(-c2ccccc2)n1C [Aminopyrine, reference compound] | 100 | 30 | 35 | 14 | 47 | 60 | – | –
CC(C(=O)O)c1cc(Cl)c2c(c1)C=CC(C)(C)N2 (stereo not drawn) [Compound 35, 2-(8-Chloro-1,2-dihydro-2,2-dimethylquinolin-6-yl)propionic acid] | 20 | 35 | 50 | 37 | 52 | 68 | 0 | –
CC(C(=O)O)c1cc(Cl)c2c(c1)CCC(C)(C)N2 (stereo not drawn) [Compound 36, 2-(8-Chloro-1,2,3,4-tetrahydro-2,2-dimethylquinolin-6-yl)propionic acid] | 10 | 30 | 55 | 36 | 61 | 73 | 0 | –
CCCCC1C(=O)N(c2ccccc2)N(c2ccccc2)C1=O [Phenylbutazone, reference compound] | – | – | – | – | – | – | – | 100
